Data published in patent US20240382460A1, “Compositions and Methods for Preventing or Improving Premature Skin Aging” (NANJING NUTRABUILDING BIO-TECH CO., LTD., priority 2022, published 2024).

Tests used:
[1] = test system: normal human dermal fibroblasts (NHDF); assay: Cell viability (WST-8) of UVA-irradiated fibroblasts; assay type: cell-based; conditions: light or radiation study, irradiated conditions UVA 4 J/cm^2, read-out: Viability (WST-8), % Irradiated control
Experimental: (§1) The normal human dermal fibroblasts (NHDF) were incubated for 16 days, with ultraviolet light exposure three times a day. For the experimental group the cells were treated using medium containing 0.5, 3, 30 μM of ergothioneine.
(§2) Deletions in mtDNA were quantified using qPCR. The 522 bp fragment represents the amount of mtDNA with deletions, whereas the 262 bp fragment reflects the quantity of intact mtDNA, Relative intensity (AU) is typically used to describe the intensity of the fluorescent signal, and its magnitude is proportional to the number of fragments measured. And cell activity was analyzed using WST-8.

[2] = test system: normal human dermal fibroblasts (NHDF); assay: UV-induced mtDNA common deletion (Cdel) in fibroblasts, PCR; assay type: cell-based; conditions: for reduction in Cdel incidence compared to the irradiated control group: UV-irradiated NHDF; for Nest PCR - deleted mtDNA, % Irradiated control / Nest PCR - deleted mtDNA, Relative Intensity / PCR on mtDNA (262 bp) long fragment, % Irradiated control / PCR on mtDNA (262 bp) long fragment, Relative Intensity: irradiated conditions UVA 4 J/cm^2
Experimental: as §1, §2
FIG. 2 depicts the effect of compound ergothioneine on the UV-induced mtDNA common deletion (Cdel) in fibroblasts—migration of PCR products (262 bp fragment=total mtDNA without Cdel; 522 bp fragment=mtDNA with Cdel) on 1.5% agarose gel.

[3] = animals and humans, even at high doses; cited from earlier work

In the case of `C[N+](C)(C)[C@@H](Cc1c[nH]c(=S)[nH]1)C(=O)[O-]` [Ergothioneine, ergothioneine], the viability at 0.5 µM ([1]; 0.5 μM) is reported as 100%, the viability at 3 µM ([1]; 3 μM) is reported as 96% and the viability at 30 µM ([1]; 30 μM) is reported as 96%. The “reduction in Cdel incidence compared to the irradiated control group” value (from here on “reduction in Cdel incidence”) ([2]; 0.5 μM) was 56%, the “Nest PCR - deleted mtDNA, % Irradiated control” value (from here on “Nest PCR … % Irradiated control”) ([2]; 0.5 μM) was 56% and the “Nest PCR - deleted mtDNA, Relative Intensity” value (from here on “Nest PCR … Relative Intensity”) ([2]; 0.5 μM) was 45153 AU. The “PCR on mtDNA (262 bp) long fragment, % Irradiated control” value (“PCR on mtDNA … % Irradiated control” below) ([2]; 0.5 μM) was 120%, the “PCR on mtDNA (262 bp) long fragment, Relative Intensity” value (shortened to “PCR on mtDNA … Relative Intensity”) ([2]; 0.5 μM) was 663197 AU and the “reduction in Cdel incidence” value ([2]; 3 μM) was 67%. For the same molecule, the “Nest PCR … % Irradiated control” value ([2]; 3 μM) was 33%, the “Nest PCR … Relative Intensity” value ([2]; 3 μM) was 26636 AU and the “PCR on mtDNA … % Irradiated control” value ([2]; 3 μM) was 110%. The “PCR on mtDNA … Relative Intensity” value ([2]; 3 μM) was 606349 AU, the “reduction in Cdel incidence” value ([2]; 30 μM) was 75% and the “Nest PCR … % Irradiated control” value ([2]; 30 μM) was 25%. For the same molecule, the “Nest PCR … Relative Intensity” value ([2]; 30 μM) was 20645 AU, the “PCR on mtDNA … % Irradiated control” value ([2]; 30 μM) was 118% and the “PCR on mtDNA … Relative Intensity” value ([2]; 30 μM) was 652512 AU. The “toxicity or adverse effects associated with administration” value [3] was “no toxicity or adverse effects”.
